Laboratory results as given in patent US20070014786A1, “Methods for treating taxol-induced gut disorder” (RINAT NEUROSCIENCE CORP., priority 2003, published 2007).

Tests used:
[1] = system: Female Swiss-Webster mice; test: Taxol-induced gut disorder mouse model: abdominal distension score; settings: second experiment; taxol 300, 375 or 450 mg/m^2; scored weekly
Description: Female Swiss-Webster mice, eight weeks old were treated with vehicle alone (control), taxol alone, or agonist anti-trkC mouse monoclonal antibody 2256 (PCT WO 01/98361; Urfer et al. J. Biol. Chem. (1998) 273:5829-5840)) and taxol. Taxol was obtained from Calbiochem and prepared as a 20 mg/kg solution in Cremophor/ethanol (50:50 w/w), which was diluted with saline (1 part Cremophor/ethanol to four parts saline vol:vol), filtered through a 0.1 micron filter and administered intraperitoneally (“IP”) within 30 minutes of preparation. All treatment animals received one round of three taxol or control (vehicle) treatments every other day for three doses, i.e., day 1, 3 and 5 of the protocol. […] Taxol dose was determined on a mg/m^2 basis, using the formula that body surface area (in square cm) equals 10.5 times the weight in grams to the two-thirds power. […]
Taxol-induced gut disorder was assessed by measuring degree and quality of abdominal distension and intestinal hypertrophy after lifting the individual mouse by the tail. Degree and quality of taxol-induced abdominal distension was scored by a blinded observer using the following five point scale: • 0-no noticeable abdominal bulge • 1-slight bulge • 2-distinct bulge (may be full stomach) • 3-fat mouse • 4-definite lumpy abdomen • 5-swollen abdomen […]

[2] = system: Female Swiss-Webster mice; test: Taxol-induced gut disorder mouse model: intestinal hypertrophy (weight and length of GI tract) and autopsy; assay type: in vivo
Description: Intestinal hypertrophy was assessed by measuring weight and length of the gastrointestinal (“GI”) tract as follows: animals were sacrificed, and the weight and length of the GI tract was assessed as follows: the entire GI tract was removed, emptied of any contents, and weighed. The GI tract was then separated into stomach, small intestine, and caecum plus large intestine and those parts were individually weighed.
Selected animals were sacrificed and subjected to autopsy. […] Ascites production was not observed in control animals.
Intestinal hypertrophy was assessed as described above. […] Ascites production was not observed in control animals.

[3] = target: T1, low affinity receptor (LNGFR), p75NTR or p75 (Homo sapiens, UniProt P08138); settings: according to current knowledge (background); cited from earlier work
T1 sequence (P08138 29-427): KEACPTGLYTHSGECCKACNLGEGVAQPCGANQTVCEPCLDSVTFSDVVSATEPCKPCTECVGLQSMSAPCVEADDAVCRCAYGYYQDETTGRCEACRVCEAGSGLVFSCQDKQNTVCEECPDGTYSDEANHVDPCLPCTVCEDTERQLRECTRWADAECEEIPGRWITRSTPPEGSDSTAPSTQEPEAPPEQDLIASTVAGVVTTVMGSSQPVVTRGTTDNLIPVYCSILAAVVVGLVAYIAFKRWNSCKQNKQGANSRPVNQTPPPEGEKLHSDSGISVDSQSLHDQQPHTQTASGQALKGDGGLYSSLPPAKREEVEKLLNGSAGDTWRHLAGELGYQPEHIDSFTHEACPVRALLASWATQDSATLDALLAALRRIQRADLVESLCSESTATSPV

[4] = taxol 450 mg/m^2 (four weeks) or 375 mg/m^2 (six weeks)

Compound	gut distension (FIG. 2) [1]	length of the GI tract (FIG. 8) [2, 4]	raw weight of the caecum plus large intestine (FIG. 9) [2, 4]	weight of the caecum plus large intestine (FIG. 6) ([2]; taxol 450 mg/m^2, four weeks)	weight of the small intestine (FIG. 5) ([2]; taxol 450 mg/m^2, four weeks)	weight of the GI tract from stomach through colon (FIG. 4) ([2]; taxol 450 mg/m^2, sacrificed at four weeks)	intestinal obstruction(s) and/or stool softening or diarrhea ([2]; taxol-treated animals at autopsy)	ascites in the peritoneum at autopsy ([2]; taxol-treated animals with abdominal distension, not observed in control animals)	Kd [3] [nM]
CC(=O)O[C@H]1C(=O)[C@@]2(C)[C@H]([C@H](OC(=O)c3ccccc3)[C@]3(O)C[C@H](OC(=O)[C@H](O)[C@@H](NC(=O)c4ccccc4)c4ccccc4)C(C)=C1C3(C)C)[C@]1(OC(C)=O)CO[C@@H]1C[C@@H]2O [taxol, paclitaxel]	resulted in gut distension	significant decrease	significant increase	significant increase	significant increase	significant increase	exhibited intestinal obstruction(s) and/or stool softening or diarrhea	Production of ascites in the peritoneum was noted	
nerve growth factor [NGF]									2
neurotrophin-3 [NT-3]									2
